From paper PMC5733478, “A Non-imaging High Throughput Approach to Chemical Library Screening at the Unmodified Adenosine-A3 Receptor in Living Cells” (Frontiers in Pharmacology, 2017)
Where a name gives a salt, the structure may show the parent alone. Read-outs that look alike come from different tables or passages of the source.

Molecular target: T1, human A3AR (Homo sapiens, UniProt P0DMS8)
T1 construct: expressed in transfected cells
T1 sequence (P0DMS8 1-318): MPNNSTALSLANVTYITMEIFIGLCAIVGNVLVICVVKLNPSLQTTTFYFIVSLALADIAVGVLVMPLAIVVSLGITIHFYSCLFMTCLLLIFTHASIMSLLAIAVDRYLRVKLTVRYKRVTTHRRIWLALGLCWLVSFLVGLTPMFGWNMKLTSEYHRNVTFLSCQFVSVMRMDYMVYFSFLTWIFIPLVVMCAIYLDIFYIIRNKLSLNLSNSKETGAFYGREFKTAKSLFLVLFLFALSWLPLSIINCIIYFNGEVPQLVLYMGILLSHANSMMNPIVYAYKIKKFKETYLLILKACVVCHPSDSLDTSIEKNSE
Test: LOPAC library primary screen: single concentration (10 μM) inhibition of 25 nM CA200645 binding, PHERAstar FS

[1] = compounds tested at 10 µM, % of control wells (1% DMSO and 25 nM CA200645), whole live cells expressing the A3AR, mean ± SD, three experiments in duplicate
[2] = % of 25 nM CA200645 binding in the presence of 10 μM compound, LOPAC full screen, A3AR CHO cells

Row | Compound | % 25 nM CA200645 binding [%] | also measured
1 | CC(=O)OCC1=C(C(=O)[O-])N2C(=O)[C@@H](NC(=O)CCC[C@@H](N)C(=O)[O-])[C@H]2SC1.[Zn+2] [Cephalosporin C zinc salt] | 86.9 ± 28.2 | –
2 | O=C(O)/C=C\C(=O)O.O=[N+]([O-])c1ccc2nc(N3CCNCC3)ccc2c1 [Quipazine, 6-nitro-, maleate] | 100.0 ± 4.7 | –
3 | O=C(N[C@@H](Cc1ccccc1)C(=O)CCl)OCc1ccccc1 [Z-L-Phe chloromethyl ketone] | 100.8 ± 7.1 | –
4 | CNCCc1ccc(O)c(O)c1.Cl [N-Methyldopamine hydrochloride] | 96.1 ± 15.9 | –
5 | O=C1NCN(c2ccccc2)C12CCN(CC1COc3ccccc3O1)CC2 (stereo not drawn) [Spiroxatrine] | – | % 25 nM CA200645 binding [1]: 112.7 ± 3.0%
6 | CC(N)C(=O)OC(C)(C)Cc1ccc(Cl)cc1 (stereo not drawn) [Alaproclate hydrochloride] | 104.8 ± 8.1 | –
7 | trans-(±)-ACPD | 83.6 ± 13.4 | –
8 | CCCc1nn(C)c2c(=O)[nH]c(-c3cc(S(=O)(=O)N4CCN(C)CC4)ccc3OCC)nc12.O=C(O)CC(O)(CC(=O)O)C(=O)O [Sildenafil citrate salt] | 88.1 ± 8.0 | –
9 | Cl.O=C(O)Cc1c[nH]cn1 [Imidazole-4-acetic acid hydrochloride] | 99.3 ± 14.9 | –
10 | O=C(N[C@H]1CN2CCC1CC2)c1ccc(Cl)cc1 [PNU-282987] | 78.9 ± 33.0 | –
11 | CCCCCCCCCCCCCCCCCCN(CCCCCCCCCCCCCCCCCC)CCCN(CCO)CCO [Avridine] | 100.2 ± 21.9 | –
12 | Br.CCCN1CCc2cc(O)cc3c2[C@H]1Cc1ccc(O)c(O)c1-3 | 89.0 ± 14.4 | –
13 | O=c1onc2n1-c1cc(Br)ccc1OC2 [NS 2028] | 100.2 ± 8.6 | –
14 | CCCCC#Cc1nc(NC)c2ncn([C@@H]3O[C@H](CO)[C@@H](O)[C@H]3O)c2n1 [HEMADO, reference compound] | 40.1 ± 10.4 | % Total CA200645 binding [2]: 40.1 ± 10.5%
15 | C=C(C)[C@H]1CC=C(C(=O)O)CC1 [(-)-Perillic acid] | 115.8 ± 16.6 | –
16 | Fc1ccc(C(c2ccc(F)cc2)N2CCN(C/C=C/c3ccccc3)CC2)cc1 [Flunarizine dihydrochloride] | 102.1 ± 8.8 | –
17 | O=C1NCN(c2ccccc2)C12CCN(CCCC(c1ccc(F)cc1)c1ccc(F)cc1)CC2 [Fluspirilene] | 94.5 ± 10.0 | –
18 | O=C(OCCN1CCOCC1)C1(c2ccccc2)CCCCC1 [PRE-084] | 100.3 ± 14.3 | –
19 | O=C(O)/C=C/C(=O)O.O=C(O)/C=C/C(=O)O.O=C(O)/C=C/C(=O)O.O=C1CCCN1CC#CCN1CCCC1.O=C1CCCN1CC#CCN1CCCC1 [Oxotremorine sesquifumarate salt] | 101.9 ± 13.3 | –
20 | CC[C@@H]1C(=O)OC[C@@H]1Cc1cncn1C [Pilocarpine nitrate] | 92.9 ± 2.4 | –
21 | C[C@@H](N)Cc1cnc[nH]1.Cl.Cl | 98.7 ± 8.4 | –
22 | CC1COc2c(N3CCN(C)CC3)c(F)cc3c(=O)c(C(=O)O)cn1c23 (stereo not drawn) [Ofloxacin] | 93.4 ± 20.0 | –
23 | C[C@](N)(Cc1ccc(O)c(O)c1)C(=O)O [L-alpha-Methyl DOPA] | 92.6 ± 21.6 | –
24 | Cl.N[C@@H](CCC(=O)O)C(=O)O [L-Glutamic acid hydrochloride] | 113.0 ± 19.3 | –

Row | Compound | % 25 nM CA200645 binding [%] | also measured
25 | CC1(C)CCC2=C(O1)c1ccccc1C(=O)C2=O [beta-Lapachone] | 93.1 ± 5.0 | –
26 | CC(C)c1cccc(C(C)C)c1O [Propofol] | 96.0 ± 3.0 | –
27 | Nc1nnc(-c2cccc(Cl)c2Cl)c(N)n1 [Lamotrigine] | 93.6 ± 9.2 | –
28 | 10058-F4 | 75.9 ± 8.5 | –
29 | Ro 41-0960 | 98.8 ± 6.8 | –
30 | CN(Cc1cnc2nc(N)nc(N)c2n1)c1ccc(C(=O)N[C@@H](CCC(=O)O)C(=O)O)cc1.O [Methotrexate hydrate] | 100.1 ± 8.9 | –
31 | O=C1NC(=O)/C(=C/c2ccc3c(c2)OC(F)(F)O3)S1 [AS 604850] | 58.3 ± 11.4 | –
32 | CC1(C)CCC(NC(=O)[C@@H](N)CCC(=O)O)CC1 [CR 2249] | – | % 25 nM CA200645 binding [1]: 109.1 ± 19.6%
33 | N[C@@H](CCCC(=O)O)C(=O)O [L-2-aminoadipic acid] | 101.5 ± 9.7 | –
34 | S=c1[nH]c(-c2ccccc2)cn1-c1ccccc1 [KRM-III] | 70.4 ± 12.2 | –
35 | C=CC[C@H](N)C(=O)O [L-allylglycine] | 98.5 ± 1.7 | –
36 | O.O.O=C(Nc1ccc2c(c1)CCN(Cc1ncn[nH]1)C2)c1ccccc1-c1ccc(C(F)(F)F)cc1 [CP-346086 dihydrate] | 98.2 ± 12.5 | –
37 | Cn1cc(C2=C(c3ccc(Cl)cc3Cl)C(=O)NC2=O)c2ccccc21 [SB 216763] | 94.5 ± 10.2 | –
38 | Nc1nc2[nH]c(=O)cnc2c(=O)[nH]1 [Isoxanthopterin] | 94.7 ± 15.0 | –
39 | CC(C)OC(=O)C(C)(C)Oc1ccc(C(=O)c2ccc(Cl)cc2)cc1 [Fenofibrate] | 87.6 ± 17.1 | –
40 | CN1CCN(CCCN2c3ccccc3Sc3ccc(C(F)(F)F)cc32)CC1 [Trifluoperazine dihydrochloride] | – | % 25 nM CA200645 binding (% of control wells (1% DMSO and 25 nM CA200645), compounds at 10 µM, […], mean ± SD, three experiments in duplicate): 97.1 ± 25.1%
41 | Nc1nc2c(cnn2CCc2ccccc2)c2nc(-c3ccco3)nn12 [SCH 58261, reference compound] | 52.5 ± 9.7 | % Total CA200645 binding: 52.2 ± 5.4%
42 | NC1CCN(O)C1=O (racemic) [(±)-HA-966] | 96.6 ± 6.4 | –
43 | Nc1nc(Nc2ccccc2)nc2c1ncn2[C@@H]1O[C@H](CO)[C@@H](O)[C@H]1O [CV1808, 2-phenylaminoadenosine, reference compound] | 55.3 ± 19.9 | hit in LOPAC primary screen (inhibited the binding of CA200645 by >40%) (10 μM compound, 25 nM CA200645, A3AR CHO cells): identified; % Total CA200645 binding [2]: 53.3 ± 19.9%
44 | Cl.c1ccc2sc(C3(N4CCCCC4)CCCCC3)cc2c1 [BTCP hydrochloride] | 94.3 ± 14.0 | –
45 | NS(=O)(=O)Cc1noc2ccccc12 [Zonisamide sodium] | 98.6 ± 10.8 | –
46 | NC(=O)CI [Iodoacetamide] | 101.9 ± 8.2 | –
47 | N[C@@H](Cn1ccc(=O)c(O)c1)C(=O)O [L-Mimosine from Koa hoale seeds] | 106.5 ± 13.7 | –
48 | O=C(O)CC[N+](=O)[O-] [3-Nitropropionic acid] | 111.3 ± 13.2 | –

Row | Compound | % 25 nM CA200645 binding [%] | also measured
49 | NNC(=O)c1ccc(O)cc1 [4-Hydroxybenzhydrazide] | 105.3 ± 8.4 | –
50 | Cn1cnc([N+](=O)[O-])c1Sc1ncnc2nc[nH]c12 [Azathioprine] | 93.9 ± 5.0 | –
51 | Nc1ccncc1 [4-Aminopyridine] | 93.6 ± 7.2 | –
52 | Nc1nc2ccc(Cl)cc2c2nc(-c3ccco3)nn12 [CGS-15943] | 30.0 ± 3.0 | –
53 | CCCCCCCCCCC(C)(C)C(=O)Nc1c(OC)cc(OC)cc1OC [CI-976] | 89.4 ± 17.7 | –
54 | N=C(N)NCCC[C@H](N)C(=O)O [L-Arginine] | 97.1 ± 5.5 | –
55 | CC[C@@]1(O)C(=O)OCc2c1cc1n(c2=O)Cc2cc3ccccc3nc2-1 [(S)-(+)-Camptothecin] | 99.7 ± 12.1 | –
56 | CCN(CC)C(=O)c1ccc(O)c(OC)c1 [Vanillic acid diethylamide] | 101.7 ± 2.4 | –
57 | NCCCC(=O)O [GABA] | 95.6 ± 8.2 | –
58 | CC(C)(C)OC(=O)NC1[C@H]2CNC[C@@H]12 (stereo partly drawn) [CP-101537] | 102.3 ± 6.7 | –
59 | COc1ccccc1N1CCN(CCCNc2cc(=O)n(C)c(=O)n2C)CC1 [Urapidil hydrochloride] | 97.1 ± 1.5 | –
60 | Cc1cc(N)c2ccccc2[n+]1CCCCCCCCCC[n+]1c(C)cc(N)c2ccccc21.[Cl-].[Cl-] [Dequalinium chloride hydrate] | 86.1 ± 10.0 | –
61 | Cc1nc2ccccn2c(=O)c1CCN1CCC(C(=O)c2ccc(F)cc2)CC1 [Pirenperone] | – | % 25 nM CA200645 binding (% of control wells (1% DMSO and 25 nM CA200645), compounds at 10 µM, whole live cells expressing the A3AR, mean ± SD, three experiments in duplicate): 88.6 ± 5.4%
62 | Nc1c[n+](N2CCOCC2)no1.[Cl-] [3-Morpholinosydnonimine hydrochloride] | 114.0 ± 15.4 | –
63 | COc1cc(C(O)C(=O)O)ccc1O (racemic) [(±)-Vanillylmandelic acid] | 97.4 ± 12.9 | –
64 | O=c1oc(Cl)c(Cl)c2ccccc12 [3,4-Dichloroisocoumarin] | 95.8 ± 9.3 | –
65 | COc1cc([C@@H]2c3cc4c(cc3[C@H](O)[C@H]3COC(=O)[C@H]23)OCO4)cc(OC)c1OC [Podophyllotoxin] | 97.7 ± 17.3 | –
66 | C[N+]1(C)CCN(c2ccccc2)CC1.[I-] | 102.6 ± 13.3 | –
67 | CC(C)C(=O)Nc1ccc([N+](=O)[O-])c(C(F)(F)F)c1 [Flutamide] | 84.4 ± 23.0 | –
68 | CCCN(CCC)C(=O)C(CCC(=O)O)NC(=O)c1ccccc1 (stereo not drawn) [Proglumide] | 107.1 ± 0.6 | –
69 | CCCC1O[C@@H]2C[C@H]3[C@@H]4CCC5=CC(=O)C=C[C@]5(C)[C@H]4[C@@H](O)C[C@]3(C)[C@]2(C(=O)CO)O1 (stereo partly drawn) [Budesonide] | 92.7 ± 8.6 | –
70 | CC1=C(/C=C/C(C)=C/C=C/C(C)=C/C(=O)O)C(C)(C)CCC1 [Retinoic acid] | 93.6 ± 14.4 | –
71 | Cc1ccc(S(=O)(=O)N[C@@H](Cc2ccccc2)C(=O)CCl)cc1 | 102.0 ± 13.7 | –
